Test results taken from the NIST ThermoML archive (doi:10.1021/je049814b).

Conditions: Liquid, Coaxial cylinder method

O [water]
thermal conductivity [W/m/K]
Conditions	290.6 K	329.7 K	367.1 K	395.1 K	440.7 K	484.2 K	514.2 K	549.8 K	575.4 K
1000 kPa	0.592	0.649	0.679	0.683	–	–	–	–	–
10000 kPa	0.602	0.655	0.684	0.692	0.683	0.66	0.638	0.587	0.54
40000 kPa	0.613	0.665	0.697	0.709	0.703	0.684	0.662	0.628	0.594
